From article doi:10.1101/2025.03.03.641193, “Trihydroxybenzaldoximes are redox cycling inhibitors of ThDP-dependent DXP synthase” (bioRxiv, 2025)
“Also recorded” adds a separate entry of the source.

How the values were obtained:
H431A DXPS = molecular target: T1, H431A DXPS (Escherichia coli, UniProt P77488, H431A); assay: DXPS-IspC coupled assay, H431A variant; format: biochemical, E. coli
T1 construct: made in house
Description: (§1) To determine the role of active site network residues in the activity of oximes, inhibitory activity of 1 was assessed against EcD427A, EcH431A, and EcR99A by the DXPS-IspC coupled assay[41],[42] (Fig 4B, S3, Table S1). Ki determination was performed by varying [pyruvate] in order to assess the impact of residue substitutions on the uncompetitive mode of inhibition. […] (8.7 ± 1.2 μM, Fig S3, Table S1).
(§2) Inhibitory activity of compounds against DXPS were monitored via a continuous spectrophotometric coupled assay with DXPS and IspC as previously described.[41],[42] Briefly, Reaction mixtures containing HEPES (100 mM, pH 8.0), MgCl2 (2 mM), NaCl (5 mM), ThDP (1 mM), BSA (1 mg/mL), DXPS (125–500 nM), IspC (1.7 μM), NADPH (160 μM), DMSO (5%, v/v), and inhibitor (0–200 μM) were preincubated at 25 °C (or chamber temperature 25–30 °C) for 5 min. Enzymatic reactions were initiated via the addition of 20 μL of a 10x substrate mix for a final well volume of 200 μL. Reactions were performed in triplicate unless otherwise noted. See the following sections for details and modifications.
(§3) When varying pyruvate (0–500 μM), GAP was maintained at 50 μM (3 mM for R478A). When varying GAP (0–500 μM), pyruvate was maintained at 500 μM. The following [DXPS] were used when varying 1: WT EcDXPS, R478A, H431A, D427A (200 nM), R99A (500 nM), WT DrDXPS, WT PaDXPS (150 nM). Analogs 3 and 4 were tested using WT EcDXPS (150 nM). Reactions were incubated and initiated as described above. Immediately following initiation, NADPH depletion was monitored at 340 nm at 25 °C for 7–10 min with a 14–20 second time interval. Initial velocities of DXP formation were determined from the linear portion of the NADPH decay. Initial velocities were arithmetically corrected for background for compound 4. Initial velocities were plotted vs. substrate concentration, and the data were fit to equation 1 (mixed model), 2 (competitive), or 3 (uncompetitive) based on the calculated α value and goodness of fit in GraphPad Prism. Reported standard errors of the mean for Kis are calculated from three replicates.

[1] = molecular target: T2, pyruvate decarboxylase (PDC) (Saccharomyces cerevisiae, UniProt P06169); assay: Inhibition of PDC (ADH coupled assay); format: biochemical, S. cerevisiae
T2 construct: purchased Sigma Aldrich P9474; host or cells: baker's yeast
Description: Reaction conditions were optimized from a previously reported assay.[38] Briefly, reaction mixtures containing MES (100 mM, pH 6.2), MgCl2 (2 mM), ThDP (5 mM), PDC (0.06 U/mL), ADH (16 U/mL), NADH (170 μM), and 1 (0 or 200 μM) were preincubated at 25 °C for 5 min. Enzymatic reactions were initiated via the addition of 20 μL of 10x pyruvate (final 1mM), or water for background controls, for a final well volume of 200 μL. Immediately following initiation, NADH depletion was monitored at 340 nm at 25 °C for 7 min with a 14 second time interval. Initial velocities of acetaldehyde formation were measured and arithmetically corrected for background rates. Standard errors of reported % inhibition values were determined from 3 replicates. pH controls were conducted with phosphate buffer (pH 7 and 8); background subtraction was not performed on these samples. Reported standard errors of the mean for Kis are calculated from three replicates.

R99A DXPS = molecular target: T3, R99A DXPS (Escherichia coli, UniProt P77488, R99A); assay: DXPS-IspC coupled assay, R99A variant; format: biochemical, E. coli
T3 construct: made in house
Description: as §1, §2, §3

[2] = molecular target: T4, alcohol dehydrogenase (ADH) (Equus caballus, UniProt P00327); assay: Inhibition of ADH; format: biochemical; settings: up to 200 μM, MES pH 6.2
T4 construct: purchased Sigma Aldrich 55689
Description: Reaction mixtures containing MES (100 mM, pH 6.2), MgCl2 (2 mM), ThDP (5 mM), ADH (16 U/mL), NADH (170 μM), and 1 (0 or 200 μM) were preincubated at 25 °C for 5 min. Enzymatic reactions were initiated via the addition of 20 μL of 10x acetaldehyde (final 1mM), or water for background controls, for a final well volume of 200 μL. Immediately following initiation, NADH depletion was monitored at 340 nm at 25 °C for 6 min with a 11 second time interval. Initial velocities of ethanol formation were measured as above and arithmetically corrected for background rates. Reported standard errors of the mean for Kis are calculated from three replicates.

DrDXPS = molecular target: T5, DrDXPS (Deinococcus radiodurans, UniProt Q9RUB5); assay: DXPS-IspC coupled assay, DrDXPS; format: biochemical, Deinoccocus radiodurans
T5 construct: made in house
Description: as §2, §3

ON=Cc1cc(O)c(O)cc1O [compound 1, 2,4,5-trihydroxybenzaldoxime]
Ki (H431A DXPS): 1.1 ± 0.1 µM
MOI varying pyruvate (H431A DXPS; EcH431A): uncompetitive
fold lower Ki relative to WT (H431A DXPS; H431A, vary pyruvate): ~ 4 fold
Inhibition of PDC at pH 7 or 8 ([1]; 200 μM, phosphate buffer pH 7 and 8): not observed
%Inhibition at 200 μM 1 ([1]; PDC, MES pH 6.2, 200 μM): ~ 14%
inhibition at 200 µM ([1]; pH 6.2, PDC, MES pH 6.2, 200 μM, read-out: %Inhibition at 200 μM 1): 14.2 ± 2.3%
MOI varying D-GAP (R99A DXPS; EcR99A): competitive
MOI varying pyruvate (R99A DXPS; EcR99A): uncompetitive
Ki (R99A DXPS; Ki Vary Pyruvate, R99A, pyruvate 0–500 μM): 30 ± 1 µM
Ki (R99A DXPS; Ki varying [D-GAP], R99A, GAP 0–500 μM, pyruvate 500 μM): 8.7 ± 1.2 µM
Ki/Ki^wt (R99A DXPS; R99A, vary pyruvate, fold reduction in potency vs WT): ~ 6
fold reduction in potency relative to WT (R99A DXPS; R99A, varying [D-GAP]): 4 fold
Inhibition of ADH [2]: did not inhibit; also recorded: not inhibited
Ki (DrDXPS): 2.8 ± 0.2 µM
MOI varying D-GAP (DrDXPS; DrDXPS): competitive
MOI varying pyruvate (DrDXPS; DrDXPS): uncompetitive
Ki relative to EcDXPS (DrDXPS; DrDXPS, varying either pyruvate or D-GAP): ≤ 2 fold
